In ChEMBL document CHEMBL6120938, “Covalent small-molecule inhibitors of SARS-CoV-2 Mpro: Insights into their design, classification, biological activity, and binding interactions” (Eur J Med Chem, 2024) one finds EC50 data, which are given here for three compounds.

The assay relates to SARS-CoV-2. Kind of assay: Antiviral activity against SARS-CoV-2 Wuhan 5-2N variant infected in African green monkey Vero E6 cells measured for 3 days by WST-8 assay. Conditions: Severe acute respiratory syndrome coronavirus 2, Wuhan 5-2N, Vero C1008, 72 h. It counts as functional, organism-based. For orientation: Tetrazolium dyes change colour on reduction, which living cells bring about.

Where a SMILES comes first, the peptide text is derived from it. The star is where a group is joined. Octanoyl = CCCCCCCC(=O)*; Boc = CC(C)(C)OC(=O)*

In the case of `CC(=O)NCC(=O)N[C@@H](Cc1ccccc1)C(=O)N[C@H](C=O)Cc1c[nH]cn1` (Ac-Gly-Phe-His-aldehyde), it took 66.1 µM to reach a half-maximal effect (EC50).

Regarding `CC(C)(C)OC(=O)NCC(=O)N[C@@H](Cc1ccccc1)C(=O)N[C@H](C=O)Cc1c[nH]cn1` (Boc-Gly-Phe-His-aldehyde), the EC50 – broadly, the concentration giving half of the maximal effect – is 5 µM.

`CCCCCCCC(=O)NCC(=O)N[C@@H](Cc1ccccc1)C(=O)N[C@H](C=O)Cc1c[nH]cn1` (Octanoyl-Gly-Phe-His-aldehyde) yielded a concentration for a half-maximal effect (EC50) of 5 µM.
